Here are results for two compounds from EP0005541A2, “Substituted piperidine, morpholine or piperidone derivatives, fungicides containing these compounds, process for their preparation and their use, and the use of these compounds as fungicides” (F. HOFFMANN-LA ROCHE & CO. Aktiengesellschaft, priority 1978, dated 1979).

Assay type in all cases: in vivo
In one experiment the test system is Venturia inaequalis. Description: Venturia inaequalis protective spray test on apple seedlings. As to conditions: infected 2 days after spraying, read on day 13 after infection vs infected untreated control. The method, then:
3 Apfelpflänzchen (verteilt auf 3 Töpfe mit 5 cm Durchmesser) aus Samen der Sorte GOLDIN DELICIOUS wurden im 4- bis 5-Blattstadium mit einer wässerigen Dispersion der Testsubstanz (wie allgemein üblich aufbereitet als Spritzpulver) allseitig gründlich besprüht. Die behandelten Pflanzen wurden anschliessend während 2 Tagen bei 17°C, 70-80%rel. Luftfeuchtigkeit und einer Photoperiode von 14 Stunden weiterkultiviert. Danach erfolgte die Infektion der Apfelsämlinge durch Besprühen mit in dest. Wasser suspendierten Konidien (200'000 Konidien/ml) von Venturia inaequalis. Nach der Infektion wurden die Pflanzen im Dunkeln während 48 Stunden bei 16-18°C und einer rel. Luftfeuchtigkeit von über 90% inkubiert und anschliessend in ein schattiertes Gewächshaus mit einer Temperatur von 22-26 °C und einer rel. Luftfeuchtigkeit von über 80% überführt. Am 13. Tage nach der Infektion erfolgte die Ermittlung der durch Venturia inaequalis befallenen Blattfläche gegenüber der infizierten, nicht behandelten Kontrolle. Die Resultate sind in Tabelle II zusammengefasst.

The next experiment relates to Puccinia coronata. Briefly: Puccinia coronata protective spray test on oat seedlings. As to conditions: oat seedlings FLAEMINGSKRONE, infected 2 days after spraying, read on day 9 after infection vs infected untreated control. The method, then: 30-40 Haferkeimlinge der Sorte FLAEMINGSKRONE (verteilt auf 2 Töpfe mit 7 cm Durchmesser) wurden jeweils im Einblattstadium mit einer wässerigen Dispersion der Testsubstanz (wie allgemein üblich aufbereitet als Spritzpulver) allseitig gründlich besprüht und anschliessend in einer Klimakabine bei 17°C. 70-80% rel. Luftfeuchtigkeit und einer Photoperiode von 16 Stunden weiterkultiviert. Nach 2 Tagen erfolgte die Infektion der Versuchspflanzen durch Besprühen mit in dest. Wasser suspendierten Uredosporen (300'000 Sporen/ml) vor. Puccinia coronata. Danach wurden die Pflanzen während 24 Stunden bei 20°C und einer Luftfeuchtigkeit von über 90W im Dunkeln inkubiert und anschliessend in ein Gewächshaus mit einer Temperatur von 22-26 °C, einer rel. Luftfeuchtigkeit von 70% und einer Photoperiode von 18 Stunden übe führt. Am 9. Tage nach der Infektion wurde die durch Pucrinia coronata befallene Blattfläche in % gegenüber der infizierten, nicht behandelten Kontrolle ermittelt. Die ResLltate sind in Tabelle I zusammengefasst.

For another experiment, the system named is Erysiphe graminis. Briefly: Erysiphe graminis protective spray test on barley seedlings (greenhouse). As to conditions: barley seedlings HERTA, infected 2 days after spraying, read 7 days after infection vs infected untreated control. As for the experimental part:
30-40 Gerstenkeimlinge der Sorte HERTA (verteilt auf 2 Töpfe mit 7 cm Durchmesser) wurden jeweils im Einblattstadium mit einer wässerigen Dispersion der Testsubstanz (wie allgemein üblich aufbereitet als Spritzpulver) allseitig gründlich besprüht und anschliessend bei 22-26°C, 80% rel. Luftfeuchtigkeit und einer Photoperiode von 16 Stunden im Gewächshaus weiterkultiviert. Die Infektion erfolgte 2 Tage nach der Behandlung durch Bestäuben der Versuchspflanzen mit Kon dien von Erysiphe graminis. 7 Tage nach der Infektion wurde ::ie durch Erysiphe graminis befallene Blattfläche in % gegenüber derjenigen der infizierten, nicht behandelten Kontrolle ermittelt. Die Resultate sind in Tabelle I zusammengefasst.

`CC(Cc1ccc(C(C)(C)CCl)cc1)CN1CC(C)OC(C)C1` (centres unmarked) [4-/3-[p-(2-Chlor-1,1-dimethyl-äthyl)-phenyl]-2-methyl-propyl/-2,6-dimethyl-morpholin]: the “Wirkung (in %) Venturia inaequalis” value with Venturia inaequalis (5 mg/l Spritzbrühe) is 13%; with Venturia inaequalis (16 mg/l Spritzbrühe), 67%; in the experiment on Venturia inaequalis (50 mg/l Spritzbrühe), 93%; with Venturia inaequalis (160 mg/l Spritzbrühe), 95%; in the experiment with Venturia inaequalis (500 mg/l Spritzbrühe), 95%. For the same compound, the “Wirkung (in %) Puccinia coronata” value with Puccinia coronata (5 mg/l Spritzbrühe) is reported as 0%; in the experiment on Puccinia coronata (16 mg/l Spritzbrühe), 0%; with Puccinia coronata (50 mg/l Spritzbrühe), 20%; with Puccinia coronata (160 mg/l Spritzbrühe), 100%. Further, the “Wirkung (in %) Erysiphe graminis” value with Erysiphe graminis (5 mg/l Spritzbrühe) is on record as 60%; with Erysiphe graminis (16 mg/l Spritzbrühe), 75%; with Erysiphe graminis (50 mg/l Spritzbrühe) it was 90%; with Erysiphe graminis (160 mg/l Spritzbrühe), 100%; in the experiment with Erysiphe graminis (500 mg/l Spritzbrühe), 100%.

`CC(CN1CCCCC1)C(O)c1ccc(C(C)(C)C)cc1` (stereo not drawn) [α-(p-tert.-Butyl-phenyl)-β-methyl-1-piperidin-propanol]: the “Wirkung (in %) Venturia inaequalis” value in the experiment with Venturia inaequalis (5 mg/l Spritzbrühe) amounted to 10%; in the experiment with Venturia inaequalis (16 mg/l Spritzbrühe), 20%; in the experiment on Venturia inaequalis (50 mg/l Spritzbrühe), 43%; in the experiment with Venturia inaequalis (160 mg/l Spritzbrühe), 93%; with Venturia inaequalis (500 mg/l Spritzbrühe), 100%. Moreover, the “Wirkung (in %) Puccinia coronata” value in the experiment with Puccinia coronata (5 mg/l Spritzbrühe) is 10%; in the experiment with Puccinia coronata (16 mg/l Spritzbrühe), 30%; in the experiment on Puccinia coronata (50 mg/l Spritzbrühe), 80%; in the experiment with Puccinia coronata (160 mg/l Spritzbrühe), 100%; in the experiment on Puccinia coronata (500 mg/l Spritzbrühe), 100%. The “Wirkung (in %) Erysiphe graminis” value in the experiment on Erysiphe graminis (5 mg/l Spritzbrühe) is 75%; in the experiment with Erysiphe graminis (16 mg/l Spritzbrühe), 80%; with Erysiphe graminis (50 mg/l Spritzbrühe) it was 87%; in the experiment with Erysiphe graminis (160 mg/l Spritzbrühe), 98%; with Erysiphe graminis (500 mg/l Spritzbrühe), 98%.
